Measurements from patent US10577362B2, “Substituted 2, 4-diamino-quinoline derivatives for use in the treatment of proliferative diseases” (GENOSCIENCE PHARMA, priority 2016, dated 2020).

Experiments:
[1] = tested on: PANC-1 (prancreatic carcinoma) cell line; test: CellTiter-Glo luminescent cell viability assay, PANC-1; assay type: cell-based; details: Homo sapiens; for viability at 4 µM: PANC-1, 4 μM; for viability at 4 µM / viability at 10 µM: 72 h, % of signal of diluent-treated cultures; for viability at 10 µM: PANC-1, 10 μM; for EC50: PANC-1 cell line, 72 h incubation, CellTiter-Glo, read-out: EC50 (growth inhibition assay of PANC-1 cell line)
Procedure, shortened: (§1)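 In a 72 h viability assay, compound-treated cells were compared against matched H2O or DMSO diluent controls by luminescence, points in at least duplicate.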

[2] = tested on: HepG2 (hepatocellular carcinoma) cell line; test: CellTiter-Glo luminescent cell viability assay, HepG2; assay type: cell-based, human; details: Homo sapiens; for viability at 4 µM / viability at 10 µM: HepG2, HepG, 72 h; for viability at 4 µM: compound at 4 μM; for viability at 10 µM: compound at 10 μM; for EC50: HepG2 cell line, 72 h incubation, CellTiter-Glo, read-out: EC50, growth inhibition of HepG2
Procedure, shortened: as §1

[3] = tested on: HCT-116 (colorectal carcinoma) cell line; test: CellTiter-Glo luminescent cell viability assay, HCT-116; assay type: cell-based, human; details: Homo sapiens; for viability at 4 µM: HCT-116, compound at 4 μM; for viability at 4 µM / viability at 10 µM: 72 h; for viability at 10 µM: HCT-116, compound at 10 μM; for EC50: HCT-116 cell line, 72 h incubation, CellTiter-Glo, read-out: EC50, growth inhibition of HCT-116
Procedure, shortened: (§2)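 Luminescent signal, normalised to diluent-treated cultures, defines % viability; EC50 is the concentration lowering it to 50%. Cells had been exposed to compound for 72 h at 37 °C in medium with 10% FBS, at a constant H2O or DMSO percentage.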

[4] = tested on: MOLM-14 (acute myeloid leukemia) cell line; test: CellTiter-Glo luminescent cell viability assay, MOLM-14; assay type: cell-based, human; details: Homo sapiens; for viability at 4 µM: MOLM-14, compound at 4 μM; for viability at 4 µM / viability at 10 µM: 72 h; for viability at 10 µM: MOLM-14, compound at 10 μM; for EC50: MOLM-14 cell line, 72 h incubation, CellTiter-Glo, read-out: EC50, growth inhibition of MOLM-14
Procedure, shortened: as §1

[5] = tested on: Huh7 (hepatocellular carcinoma) cell line; test: CellTiter-Glo luminescent cell viability assay, Huh7; assay type: cell-based, human; details: Homo sapiens, Huh-7; for viability at 4 µM: Huh7, compound at 4 μM; for viability at 4 µM / viability at 10 µM: 72 h; for viability at 10 µM: Huh7, compound at 10 μM; for EC50: Huh7 cell line, 72 h incubation, CellTiter-Glo, read-out: EC50, growth inhibition of Huh7
Procedure, shortened: as §1

[6] = tested on: A375 (malignant melanoma) cell line; test: CellTiter-Glo luminescent cell viability assay, A375; assay type: cell-based, human; details: Homo sapiens, A-375; for viability at 4 µM: A375, compound at 4 μM; for viability at 4 µM / viability at 10 µM: 72 h; for viability at 10 µM: A375, compound at 10 μM; for EC50: A375 cell line, 72 h incubation, CellTiter-Glo, read-out: EC50, growth inhibition of A375
Procedure, shortened: as §2

[7] = tested on: 786-O (renal adenocarcinoma) cell line; test: CellTiter-Glo luminescent cell viability assay, 786-O; assay type: cell-based, human; details: Homo sapiens, 786-0; for viability at 4 µM / viability at 10 µM: 786-O, 72 h; for viability at 4 µM: compound at 4 μM; for viability at 10 µM: compound at 10 μM; for EC50: 786-O cell line, 72 h incubation, CellTiter-Glo, read-out: EC50, growth inhibition of 786-O
Procedure, shortened: as §2

Row | EC50 [2] | EC50 [3] | EC50 [4] | EC50 [5] | EC50 [6] | EC50 [7] | SMILES | viability at 4 µM [1] | viability at 10 µM [1] | viability at 4 µM [2] | viability at 10 µM [2] | viability at 4 µM [3] | viability at 10 µM [3] | viability at 4 µM [4] | viability at 10 µM [4] | viability at 4 µM [5] | viability at 10 µM [5] | viability at 4 µM [6] | viability at 10 µM [6] | viability at 4 µM [7] | viability at 10 µM [7] | also measured
1 | – | – | – | – | – | – | CC(C)(C)NC1CCN(c2c(C#N)c(Nc3ccccn3)nc3ccccc23)CC1 [Compound 3278CN, 2-(pyridin-2-ylamino)-3-cyano-4-[4-(tert-butylamino)piperidin-1-yl]quinoline] | 102% | 84.2% | 87.1% | 53.2% | 85.7% | 7.2% | 96.1% | 88.6% | 95% | 51% | 90.6% | 45.2% | 90.2% | 68.2% | –
2 | 0.5 to 5 µM | 0.5 to 5 µM | 5 to 10 µM | 0.5 to 5 µM | 0.5 to 5 µM | 0.5 to 5 µM | CC(C)(C)NC1CCN(c2c(C#N)c(NCc3ccc(C(F)(F)F)cc3)nc3ccccc23)CC1 [Compound 3292CN, 2-[4-(trifluoromethyl)benzylamino]-3-cyano-4-[4-(tert-butylamino)piperidin-1-yl]quinoline] | 75.6% | 25% | 20.5% | 0.2% | 0.3% | 0.1% | 54.7% | 0.3% | 10.2% | 0.2% | 0.3% | 0.2% | 0.5% | 0.2% | EC50 [1]: 5 to 10 µM
3 | 5 to 10 µM | 0.5 to 5 µM | 5 to 10 µM | 5 to 10 µM | 5 to 10 µM | 0.5 to 5 µM | CC(C)(C)NC1CCN(c2c(C#N)c(Nc3cccc(F)c3)nc3ccccc23)CC1 [Compound 3262CN, 2-(3-fluorophenylamino)-3-cyano-4-[4-(tert-butylamino)piperidin-1-yl]quinoline] | 101% | 48% | 70.8% | 0.6% | 2.6% | 0.5% | 98.7% | 0.6% | 67.9% | 0.7% | 74.9% | 0.6% | 42.6% | 0.7% | –
4 | – | – | – | – | – | – | CC(C)(C)NC1CCN(c2c(C#N)c(NCc3cccnc3)nc3ccccc23)CC1 [Compound 3304CN, 2-[(pyridin-3-ylmethyl)amino]-3-cyano-4-[4-(tert-butylamino)piperidin-1-yl]quinoline] | 99.3% | 98.7% | 91.2% | 83.4% | 70.6% | 41.6% | 94.2% | 81% | 93.3% | 82.8% | 99.5% | 74.4% | 98.9% | 80.7% | –
5 | – | – | – | – | – | – | Cc1ccc(OC2CCN(c3c(C#N)c(NCc4ccc(Cl)cc4)nc4ccccc34)CC2)cc1 [Compound 2944CN, 2-(4-chlorobenzylamino)-3-cyano-4-[4-(p-tolyloxy)piperidin-1-yl]quinoline] | 111% | 112% | 107% | 84% | 32.8% | 29.1% | 104% | 92.1% | 93.9% | 89% | 96.9% | 87.1% | 96% | 95.5% | –
6 | – | – | – | – | – | – | N#Cc1c(NCc2ccc(Cl)cc2)nc2ccccc2c1N1CCC(N2CCCC2)C1 (stereo not drawn) [Compound 148CN, 2-(4-chloro-benzylamino)-3-cyano-4-[3-(pyrrolidin-1-yl)pyrrolidin-1-yl]quinoline] | 102% | 100% | 104% | 91.9% | 93.5% | 92.2% | 92.9% | 94.7% | 91.9% | 80.8% | 94.1% | 93.2% | 88.2% | 67% | –
7 | – | – | – | – | – | – | CC(C)(C)NC1CCN(c2c(C#N)c(NCc3ccncc3)nc3ccccc23)CC1 [Compound 3306CN, 2-[(pyridin-4-ylmethyl)amino]-3-cyano-4-[4-(tert-butylamino)piperidin-1-yl]quinoline] | 101% | 93.3% | 83.4% | 71.6% | 83.9% | 72.6% | 97.6% | 94.5% | 91.7% | 82.4% | 79.2% | 77.4% | 84% | 71.7% | –
8 | 0.5 to 5 µM | 0.5 to 5 µM | 5 to 10 µM | 5 to 10 µM | 0.5 to 5 µM | 5 to 10 µM | CNC1CCCN(c2c(C#N)c(NCc3ccc(Cl)cc3)nc3ccccc23)C1 (stereo not drawn) [Compound 3158CN, 2-(4-chlorobenzylamino)-3-cyano-4-[3-(methylamino)piperidin-1-yl]quinoline] | 107% | 53.1% | 84.6% | 0.4% | 74.2% | 0.4% | 91.5% | 0.6% | 86.4% | 0.5% | 70.9% | 0.3% | 88.4% | 0.5% | EC50 [1]: 5 to 10 µM
9 | – | – | – | – | – | – | CC(C)(C)NC1CCN(c2c(C#N)c(NCc3ccco3)nc3ccccc23)CC1 [Compound 3302CN, 2-[(furan-2-ylmethyl)amino]-3-cyano-4-[4-(tert-butylamino)piperidin-1-yl]quinoline] | 95.8% | 82.3% | 83.3% | 57.5% | 57.4% | 10.8% | 82.3% | 67% | 76.6% | 40.1% | 81.6% | 14.3% | 86.1% | 48.1% | –
10 | 0.5 to 5 µM | 0.5 to 5 µM | 0.5 to 5 µM | 0.5 to 5 µM | – | 0.5 to 5 µM | CC(C)(C)NC1CCN(c2c(C#N)c(Nc3ccc(F)c(F)c3)nc3ccccc23)CC1 [Compound 3264CN, 2-(3,4-difluorophenylamino)-3-cyano-4-[4-(tert-butylamino)piperidin-1-yl]quinoline] | 78.1% | 2.4% | 0.5% | 0.3% | 0.3% | 0.3% | 0.4% | 0.5% | 11.7% | 0.5% | 12.8% | 0.4% | 12.7% | 0.6% | –
11 | 0.5 to 5 µM | 0.5 to 5 µM | 5 to 10 µM | 0.5 to 5 µM | 0.5 to 5 µM | 0.5 to 5 µM | N#Cc1c(NCc2ccc(Cl)cc2)nc2ccccc2c1N1CCCC(N)C1 (stereo not drawn) [Compound 3156CN, 2-(4-chlorobenzylamino)-3-cyano-4-(3-aminopiperidin-1-yl)quinoline] | 102% | 0.9% | 32.6% | 0.5% | 52% | 0.5% | 92.8% | 0.6% | 83% | 0.6% | 10% | 0.4% | 77.8% | 0.6% | EC50 [1]: 5 to 10 µM
